US8648066B2 (Exelixis, Inc., priority 2009, dated 2014)

Molecular target: mTOR/GbL/Raptor (mTORC1) (Homo sapiens, UniProt P42345)
Assay: mTOR/GbL/Raptor (mTORC1) ELISA assay
Assay type: biochemical
Conditions: phosphorylation of 4E-BP1; 0.2 nM mTORC1, 10 μM ATP; read-out: IC50 in this assay (mTORC1 ELISA)
Method in brief: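 Human mTORC1 (0.2 nM) phosphorylated 50 nM His-tagged 4E-BP1 with 10 µM ATP in HEPES pH 7.2 containing 10 mM MnCl2, 120 min at ambient temperature. Substrate was captured on Ni-chelate plates; phospho-4E-BP1 was detected by primary antibody and HRP secondary with luminescence.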

Row | Structure (SMILES) | IC50
1 | CC(C)(N)CCNS(=O)(=O)c1cc(-c2ccc3c(c2)CN(c2ncnc4c2CC(C)(C)CC4)CCO3)cnc1N [Example 413, 2-amino-N-(3-amino-3-methylbutyl)-5-[4-(6,6-dimethyl-5,6,7,8-tetrahydroquinazolin-4-yl)-2,3,4,5-tetrahydro-1,4-benzoxazepin-7-yl]pyridine-3-sulfonamide] | 0.05 to 0.25 µM
2 | Cc1ncnc(N2CCOc3ccc(-c4ccc5nc(N)nn5c4)cc3C2)c1Cc1ccc(F)cc1 [Example 141, 6-(4-{5-[(4-fluorophenyl)methyl]-6-methylpyrimidin-4-yl}-2,3,4,5-tetrahydro-1,4-benzoxazepin-7-yl)[1,2,4]triazolo[1,5-a]pyridin-2-amine] | 0.01 to 0.05 µM
3 | Cc1ncnc(N2CCOc3ccc(-c4cc5[nH]c(N)nc5cn4)cc3C2)c1Cc1ccc(F)cc1 [Example 216, 6-(4-{5-[(4-fluorophenyl)merthyl]-6-methylpyrimidin-4-yl}-2,3,4,5-tetrahydro-1,4-benzoxazepin-7-yl)-1H-imidazo[4,5-c]pyridin-2-amine] | 0.01 to 0.05 µM
4 | Cc1nc2ccc(-c3ccc4c(c3)CN(c3ccnc(C)c3Cc3cccc(F)c3)CCO4)cc2[nH]1 [Example 103, 4-{3-[(3-fluorophenyl)methyl]-2-methylpyridin-4-yl}-7-(2-methyl-1H-benzimidazol-6-yl)-2,3,4,5-tetrahydro-1,4-benzoxazepine] | ≤ 0.01 µM
5 | CCCc1nc2ccc(-c3ccc4c(c3)CN(c3ccnc5ccccc35)CCO4)cc2[nH]1 [Example 197, 7-(2-propyl-1H-benzimidazol-6-yl)-4-quinolin-4-yl-2,3,4,5-tetrahydro-1,4-benzoxazepine] | 1 to 2 µM
6 | Cc1nc2cc(-c3ccc4c(c3)CN(c3nc(CF)nc5c3CC(C)(C)CC5)CCO4)ccc2[nH]1 [Example 676, 4-[2-(fluoromethyl)-6,6-dimethyl-5,6,7,8-tetrahydroquinazolin-4-yl]-7-(2-methyl-1H-benzimidazol-5-yl)-2,3,4,5-tetrahydro-1,4-benzoxazepine] | ≤ 0.01 µM
7 | CC1(C)CCc2ncnc(N3CCOc4ccc(-c5cnc(C#N)c(NS(C)(=O)=O)c5)cc4C3)c2C1 [Example 625, N-{2-cyano-5-[4-(6,6-dimethyl-5,6,7,8-tetrahydroquinazolin-4-yl)-2,3,4,5-tetrahydro-1,4-benzoxazepin-7-yl]pyridin-3-yl}methanesulfonamide] | 0.05 to 0.25 µM
8 | Cc1nc2ccc(-c3ccc4c(c3)CN(c3ncnc5ccc(OCCCN(C)C)cc35)CCO4)cc2[nH]1 [Example 161, N,N-dimethyl-3-({4-[7-(2-methyl-1H-benzimidazol-6-yl)-2,3-dihydro-1,4-benzoxazepin-4(5H)-yl]quinazolin-6-yl}oxy)propan-1-amine] | 1 to 2 µM
9 | COC(=O)Nc1nc2ccc(-c3ccc4c(c3)CN(c3nc(C)nc5ccccc35)CCO4)cc2[nH]1 [Example 108, methyl {6-[4-(2-methylquinazolin-4-yl)-2,3,4,5-tetrahydro-1,4-benzoxazepin-7-yl]-1H-benzimidazol-2-yl}carbamate] | 0.25 to 1 µM
10 | CC1(C)CCc2ncnc(N3CCOc4ccc(-c5cnc(Cl)c(OC(F)F)c5)cc4C3)c2C1 [Example 573, 7-{6-chloro-5-[(difluoromethyl)oxy]pyridin-3-yl}-4-(6,6-dimethyl-5,6,7,8-tetrahydroquinazolin-4-yl)-2,3,4,5-tetrahydro-1,4-benzoxazepine] | 0.25 to 1 µM
11 | Cc1nc2ncc(-c3ccc4c(c3)CN(c3nc(-c5ccccn5)nc5c3CC(C)(C)CC5)CCO4)cc2[nH]1 [Example 473, 4-(6,6-dimethyl-2-pyridin-2-yl-5,6,7,8-tetrahydroquinazolin-4-yl)-7-(2-methyl-1H-imidazo[4,5-b]pyridin-6-yl)-2,3,4,5-tetrahydro-1,4-benzoxazepine] | 0.01 to 0.05 µM
12 | Cc1ncnc(N2CCOc3ccc(-c4ccc5[nH]c(NCCF)nc5c4)cc3C2)c1Cc1ccc(F)cc1 [Example 193, N-(2-fluoroethyl)-5-(4-{5-[(4-fluorophenyl)methyl]-6-methylpyrimidin-4-yl}-2,3,4,5-tetrahydro-1,4-benzoxazepin-7-yl)-1H-benzimidazol-2-amine] | ≤ 0.01 µM
13 | Cc1nc2cc(-c3ccc4c(c3)CN(c3nc(NCCN(C)C)nc(C)c3Cc3ccc(F)cc3)CCO4)ccc2[nH]1 [Example 683, N′-{5-[(4-fluorophenyl)methyl]-4-methyl-6-[7-(2-methyl-1H-benzimidazol-5-yl)-2,3-dihydro-1,4-benzoxazepin-4(5H)-yl]pyrimidin-2-yl}-N,N-dimethylethane-1,2-diamine] | 0.01 to 0.05 µM

Continued, values first:

Row | IC50 | Structure (SMILES)
14 | ≥ 2 µM | CN(C)C(=O)c1cccc(-c2ccc3c(c2)CN(c2ccnc4ccccc24)CCO3)c1 [Example 134, N,N-dimethyl-3-(4-quinolin-4-yl-2,3,4,5-tetrahydro-1,4-benzoxazepin-7-yl)benzamide]
15 | 0.05 to 0.25 µM | Cc1nc(N)sc1-c1ccc2c(c1)CN(c1ncnc(C)c1Cc1ccc(F)cc1)CCO2 [Example 154, 5-(4-{5-[(4-fluorophenyl)methyl]-6-methylpyrimidin-4-yl}-2,3,4,5-tetrahydro-1,4-benzoxazepin-7-yl)-4-methyl-1,3-thiazol-2-amine]
16 | 0.25 to 1 µM | CCc1ncnc(N2CCOc3ccc(-c4ccc5nc(C)[nH]c5c4)cc3C2)c1C [Example 56, 4-(6-ethyl-5-methylpyrimidin-4-yl)-7-(2-methyl-1H-benzimidazol-6-yl)-2,3,4,5-tetrahydro-1,4-benzoxazepine]
17 | 0.25 to 1 µM | Cc1cccc(Cl)c1S(=O)(=O)Nc1cc(-c2ccc3c(c2)CN(c2ncnc4c2CC(C)(C)CC4)CCO3)cnc1Cl [Example 429, 2-chloro-N-{2-chloro-5-[4-(6,6-dimethyl-5,6,7,8-tetrahydroquinazolin-4-yl)-2,3,4,5-tetrahydro-1,4-benzoxazepin-7-yl]pyridin-3-yl}-6-methylbenzenesulfonamide]
18 | ≤ 0.01 µM | CC1(C)CCc2ncnc(N3CCOc4ccc(-c5cnc6[nH]c(C(F)F)nc6c5)cc4C3)c2C1 [Example 229, 7-[2-(difluoromethyl)-3H-imidazo[4,5-b]pyridin-6-yl]-4-(6,6-dimethyl-5,6,7,8-tetrahydroquinazolin-4-yl)-2,3,4,5-tetrahydro-1,4-benzoxazepine]
19 | 0.05 to 0.25 µM | Cc1nc(CN(C)C)nc(N2CCOc3ccc(-c4ccc5scnc5c4)cc3C2)c1Cc1ccc(F)cc1 [Example 336, 1-{4-[7-(1,3-benzothiazol-5-yl)-2,3-dihydro-1,4-benzoxazepin-4(5H)-yl]-5-[(4-fluorophenyl)methyl]-6-methylpyrimidin-2-yl}-N,N-dimethylmethanamine]
20 | 0.25 to 1 µM | COc1ccc2c(N3CCOc4ccc(-c5cnc6[nH]ccc6c5)cc4C3)nc(C)nc2c1 [Example 267, 4-[2-methyl-7-(methyloxy)quinazolin-4-yl]-7-(1H-pyrrolo[2,3-b]pyridin-5-yl)-2,3,4,5-tetrahydro-1,4-benzoxazepine]
21 | 0.05 to 0.25 µM | CCNC(=O)c1ccc(-c2ccc3c(c2)CN(c2ccnc4ccccc24)CCO3)cc1 [Example 243, N-ethyl-4-(4-quinolin-4-yl-2,3,4,5-tetrahydro-1,4-benzoxazepin-7-yl)benzamide]
22 | 0.01 to 0.05 µM | Cc1ncnc(N2CCOc3ccc(-c4ccc5nc(N)[nH]c5n4)cc3C2)c1Cc1ccc(F)cc1 [Example 194, 5-(4-{5-[(4-fluorophenyl)methyl]-6-methylpyrimidin-4-yl}-2,3,4,5-tetrahydro-1,4-benzoxazepin-7-yl)-3H-imidazo[4,5-b]pyridin-2-amine]
23 | ≤ 0.01 µM | Cc1nc2cc(-c3ccc4c(c3)CN(c3nc([C@H]5CCCN5)nc5c3CC(C)(C)CC5)CCO4)cnc2[nH]1 [Example 506, 4-{6,6-dimethyl-2-[(2R)-pyrrolidin-2-yl]-5,6,7,8-tetrahydroquinazolin-4-yl]-7-(2-methyl-3H-imidazo[4,5-b]pyridin-6-yl)-2,3,4,5-tetrahydro-1,4-benzoxazepine]
24 | 0.05 to 0.25 µM | Cc1nc(CN(C)C)nc(N2CCOc3ccc(-c4cnc5sc(N)nc5c4)cc3C2)c1CC1CC1 [Example 663, 6-(4-{5-(cyclopropylmethyl)-2-[(dimethylamino)methyl]-6-methylpyrimidin-4-yl}-2,3,4,5-tetrahydro-1,4-benzoxazepin-7-yl)[1,3]thiazolo[5,4-b]pyridin-2-amine]
25 | 0.05 to 0.25 µM | CCc1ncnc(N2CCOc3ccc(-c4cnc5nc(C)[nH]c5c4)cc3C2)c1C [Example 245, 4-(6-ethyl-5-methylpyrimidin-4-yl)-7-(2-methyl-1H-imidazo[4,5-b]pyridin-6-yl)-2,3,4,5-tetrahydro-1,4-benzoxazepine]
26 | ≥ 2 µM | CC(C)Nc1nc2ccc(-c3ccc4c(c3)CN(c3ccnc5ccccc35)CCO4)cc2[nH]1 [Example 209, N-(1-methylethyl)-6-(4-quinolin-4-yl-2,3,4,5-tetrahydro-1,4-benzoxazepin-7-yl)-1H-benzimidazol-2-amine]
27 | 0.05 to 0.25 µM | Cc1nc(CN(C)C)nc(N2CCOc3ccc(-c4ccc5[nH]c(CF)nc5c4)cc3C2)c1C(C)C [Example 332, 1-[4-{7-[2-(fluoromethyl)-1H-benzimidazol-5-yl]-2,3-dihydro-1,4-benzoxazepin-4(5H)-yl}-6-methyl-5-(1-methylethyl)pyrimidin-2-yl]-N,N-dimethylmethanamine]
28 | 0.25 to 1 µM | COc1ccc2c(N3CCOc4ccc(-c5cnc6sc(N)nc6c5)cc4C3)nc(CN(C)C)nc2c1 [Example 527, 6-(4-{2-[(dimethylamino)methyl]-7-(methyloxy)quinazolin-4-yl}-2,3,4,5-tetrahydro-1,4-benzoxazepin-7-yl)[1,3]thiazolo[5,4-b]pyridin-2-amine]
29 | 0.05 to 0.25 µM | COc1c(OCc2ccccc2)ccc2c(N3CCOc4ccc(-c5ccc6nc(C)[nH]c6c5)cc4C3)ncnc12 [Example 39, 7-(2-methyl-1H-benzimidazol-6-yl)-4-{8-(methyloxy)-7-[(phenylmethyl)oxy]quinazolin-4-yl}-2,3,4,5-tetrahydro-1,4-benzoxazepine]
30 | 1 to 2 µM | Cn1c(N)nc2cc(-c3ccc4c(c3)CN(c3ccnc5ccccc35)CCO4)ccc21 [Example 116, 1-methyl-5-(4-quinolin-4-yl-2,3,4,5-tetrahydro-1,4-benzoxazepin-7-yl)-1H-benzimidazol-2-amine]
